Laboratory results as given in US10646440B2, “Sanguisorbigenin polymer micelle and preparative methods thereof” (SICHUAN INLU WEITE PHARMACEUTICAL TECHNOLOGY CO., LTD., priority 2016, dated 2020).

System: KM-mice given cyclophosphamide (bone marrow suppression)
Assay: Pharmacodynamic experiment: cyclophosphamide-induced bone marrow suppression, peripheral blood counts
Assay type: in vivo
[1] = cyclophosphamide 120 mg/kg i.p. day 1, 2.5 mg/kg for 6 days, blood on day 7, mean ± s

SMILES: CC1CC[C@]2(C(=O)O)CC[C@]3(C)C(=CCC4[C@@]5(C)CCC(O)C(C)(C)C5CC[C@]43C)C2[C@]1(C)O (stereo partly drawn) [Sanguisorbigenin, 3β,19β-dihydroxyurs-12-en-28-oic acid]
- numbers of NEUT and HGB in peripheral blood compared with model group (2.5 mg/kg, P<0.05): did not show significant difference
- numbers of WBC, RBC, and PLT in peripheral blood compared with model group (2.5 mg/kg, P<0.05): did not show significant difference
- HGB in peripheral blood [1]: 45.47 ± 8.39 ^ g/L
- NEUT in peripheral blood [1]: 2.56 ± 0.13 ×10^9
- PLT in peripheral blood [1]: 231.16 ± 15.27 ×10^9
- RBC in peripheral blood [1]: 3.15 ± 0.19 ×10^12
- WBC in peripheral blood [1]: 2.79 ± 0.26 ×10^9
